# Values of other authors in patent US20040131702A1, “Use of selenite or preparation containing selenite for treating wounds” (priority 2001, published 2004).
# Values joined by “and” are separate entries in the source; they are usually repeats but may differ in a detail not shown here. Identical values can stand only once.
# Columns and labels:
# [1] = acid environment
# human body = conditions: in vivo
# animals = conditions: in vivo
SMILES,Standard redox potential E0 [1],Selenium content of the daily food above which the human body will fall ill (human body),Selenium content of food above which animals exhibit symptoms of poisoning (animals)
O=[Se](O)O [selenite],−0.740 Volt and −0.740 (acid environment) Volt,,
[Se] [selenium],,more than 1 μg of selenium/g,5 to 10 μg of selenium/g
